The values that follow come from patent US10774092B2 (SALK INSTITUTE FOR BIOLOGICAL STUDIES, priority 2014, dated 2020).

Bounds are passed on as bounds.

For the experiment, the target named is ULK1 (Homo sapiens, UniProt O75385). The experiment is described as follows: ULK1 inhibition assay (Table 1). It counts as biochemical. As to conditions: * = tested as a mixture of regioisomers.
Chain of ULK1 (O75385 whole entry, looked up): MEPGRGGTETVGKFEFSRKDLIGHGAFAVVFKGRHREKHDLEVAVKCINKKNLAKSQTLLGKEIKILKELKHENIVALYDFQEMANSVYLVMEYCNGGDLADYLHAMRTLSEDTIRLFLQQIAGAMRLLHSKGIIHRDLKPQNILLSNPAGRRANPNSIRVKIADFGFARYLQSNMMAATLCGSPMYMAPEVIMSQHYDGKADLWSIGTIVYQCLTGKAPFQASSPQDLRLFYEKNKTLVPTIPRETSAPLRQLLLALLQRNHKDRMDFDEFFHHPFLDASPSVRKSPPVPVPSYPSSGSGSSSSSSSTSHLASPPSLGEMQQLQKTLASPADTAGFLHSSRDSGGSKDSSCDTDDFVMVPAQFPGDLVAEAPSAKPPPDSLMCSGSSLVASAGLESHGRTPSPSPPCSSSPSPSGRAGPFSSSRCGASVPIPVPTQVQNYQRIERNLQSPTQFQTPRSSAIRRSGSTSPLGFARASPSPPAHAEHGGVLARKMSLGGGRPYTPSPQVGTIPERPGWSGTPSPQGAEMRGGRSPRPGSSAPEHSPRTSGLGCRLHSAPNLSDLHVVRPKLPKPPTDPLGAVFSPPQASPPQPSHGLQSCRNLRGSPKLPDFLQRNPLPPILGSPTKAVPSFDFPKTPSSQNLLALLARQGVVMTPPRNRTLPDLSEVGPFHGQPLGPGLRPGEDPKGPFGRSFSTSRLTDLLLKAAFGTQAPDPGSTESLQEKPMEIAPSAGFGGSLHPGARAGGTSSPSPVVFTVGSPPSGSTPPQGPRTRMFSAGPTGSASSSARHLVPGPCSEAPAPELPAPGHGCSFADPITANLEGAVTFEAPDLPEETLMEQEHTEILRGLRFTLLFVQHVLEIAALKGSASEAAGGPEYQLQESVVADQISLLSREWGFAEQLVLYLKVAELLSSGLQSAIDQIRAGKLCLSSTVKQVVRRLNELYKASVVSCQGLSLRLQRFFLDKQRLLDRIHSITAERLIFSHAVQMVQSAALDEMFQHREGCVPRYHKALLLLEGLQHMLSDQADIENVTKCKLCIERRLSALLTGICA
Turning to `O=C1CCc2cc(Nc3ncc(C(F)(F)F)c(NCCO)n3)ccc2N1` [Example 197, 6-((4-((2-hydroxyethyl)amino)-5-(trifluoromethyl)pyrimidin-2-yl)amino)-3,4-dihydroquinolin-2(1H)-one], the IC50 was less than 0.2 µM. For the compound `CNC(=O)c1ccccc1Nc1nc(Nc2cnc3[nH]ccc3c2)ncc1C(F)(F)F` [Example 201, 2-((2-((1H-pyrrolo[2,3-b]pyridin-5-yl)amino)-5-(trifluoromethyl)pyrimidin-4-yl)amino)-N-methylbenzamide], the half-maximal inhibitory concentration (IC50) was less than 0.2 µM. For the compound `CN(c1nc(Nc2ccc3c(c2)CCC(=O)N3)ncc1C(F)(F)F)C1CC1` [Example 202, 6-((4-(cyclopropyl(methyl)amino)-5-(trifluoromethyl)pyrimidin-2-yl)amino)-3,4-dihydroquinolin-2(1H)-one], the IC50 was less than 0.2 µM. In the case of `FC(F)(F)c1cnc(Nc2ccc3[nH]ccc3c2)nc1NC1CC1` [Example 206, N4-cyclopropyl-N2-(1H-indol-5-yl)-5-(trifluoromethyl) pyrimidine-2,4-diamine] it was less than 0.2 µM; in that of `FC(F)(F)c1cnc(Nc2ccc3ncoc3c2)nc1NC1CC1` [Example 208a, N2-(benzo[d]oxazol-6-yl)-N4-cyclopropyl-5-(trifluoromethyl)pyrimidine-2,4-diamine], less than 0.2 µM; in that of `Nc1nc(Nc2ccc3c(c2)CCC(=O)N3)ncc1C(F)(F)F` [Example 209, 6-((4-amino-5-(trifluoromethyl)pyrimidin-2-yl)amino)-3,4-dihydroquinolin-2(1H)-one], 0.2 to 2 µM. As to `O=C1CCc2cc(Nc3ncc(C(F)(F)F)c(N(CCO)CCO)n3)ccc2N1` [Example 212a, 6-((4-(bis(2-hydroxyethyl)amino)-5-(trifluoromethyl)pyrimidin-2-yl)amino)-3,4-dihydroquinolin-2(1H)-one], the half-maximal inhibitory concentration (IC50) is greater than 2 µM. As to `FC(F)(F)c1cnc(Nc2ccc3c(c2)OCO3)nc1NC1CC1` [Example 213, N2-(benzo[d][1,3]dioxol-5-yl)-N4-cyclopropyl-5-(trifluoromethyl)pyrimidine-2,4-diamine], the IC50 was less than 0.2 µM. The result for `O=C1CCc2cc(Nc3ncc(C(F)(F)F)c(N4CC(F)(F)C4)n3)ccc2N1` [Example 215, 6-((4-(3,3-difluoroazetidin-1-yl)-5-(trifluoromethyl)pyrimidin-2-yl)amino)-3,4-dihydroquinolin-2(1H)-one] reads less than 0.2 µM; that for `O=C1CCc2cc(Nc3ncc(C(F)(F)F)c(NCC4CC4)n3)ccc2N1` [Example 216, 6-((4-((cyclopropylmethyl)amino)-5-(trifluoromethyl)pyrimidin-2-yl)amino)-3,4-dihydroquinolin-2(1H)-one], less than 0.2 µM. As to `Nc1nc(Nc2cnc3[nH]ccc3c2)ncc1C(F)(F)F` [Example 217, N2-(1H-pyrrolo[2,3-b]pyridin-5-yl)-5-(trifluoromethyl) pyrimidine-2,4-diamine], the IC50 was greater than 2 µM.

Take `COC(=O)CNc1nc(Nc2ccc3c(c2)CCC(=O)N3)ncc1C(F)(F)F` [Example 218, Methyl (2-((2-oxo-1,2,3,4-tetrahydroquinolin-6-yl)amino)-5-(trifluoromethyl)pyrimidin-4-yl)glycinate]: the half-maximal inhibitory concentration (IC50) was greater than 2 µM.

With `CCONc1nc(Nc2ccc3c(c2)CCC(=O)N3)ncc1C(F)(F)F` [Example 219, 6-((4-(ethoxyamino)-5-(trifluoromethyl)pyrimidin-2-yl)amino)-3,4-dihydroquinolin-2(1H)-one], the half-inhibitory concentration (IC50) was greater than 2 µM. The result for `CC1(Nc2nc(Nc3ccc4c(c3)CCC(=O)N4)ncc2C(F)(F)F)COC1` [Example 220a, 6-((4-((3-methyloxetan-3-yl)amino)-5-(trifluoromethyl)pyrimidin-2-yl)amino)-3,4-dihydroquinolin-2(1H)-one] reads greater than 2 µM; that for `FC(F)(F)c1cnc(Nc2ccnnc2)nc1NC1CC1` [Example 221a, N4-cyclopropyl-N2-(pyridazin-4-yl)-5-(trifluoromethyl)pyrimidine-2,4-diamine], less than 0.2 µM.

As to `O=C1CCc2cc(Nc3ncnc(NC4CC4)n3)ccc2N1` [Example 225, 6-((4-(cyclopropylamino)-1,3,5-triazin-2-yl)amino)-3,4-dihydroquinolin-2(1H)-one], the IC50 is greater than 2 µM. The result for `COC(=O)[C@@H]1CCCN1c1nc(Nc2ccc3c(c2)CCC(=O)N3)ncc1C(F)(F)F` [Example 227, Methyl (2-((2-oxo-1,2,3,4-tetrahydroquinolin-6-yl)amino)-5-(trifluoromethyl)pyrimidin-4-yl)-L-prolinate] reads 0.2 to 2 µM. `FC(F)(F)c1cnc(N2CCCC2c2cccnc2)nc1NC1CC1` (centres unmarked) [Example 228, N-cyclopropyl-2-(2-(pyridin-3-yl)pyrrolidin-1-yl)-5-(trifluoromethyl)pyrimidin-4-amine]: the half-inhibitory concentration (IC50) was greater than 2 µM. The result for `CNC(=O)c1ccccc1Oc1nc(Nc2cc(OC)c(OC)c(OC)c2)ncc1Cl` [Example 234a, 2-((5-chloro-2-((3,4,5-trimethoxyphenyl)amino)pyrimidin-4-yl)oxy)-N-methylbenzamide] reads greater than 2 µM; that for `O=c1[nH]c2ccc(Nc3ncc(Br)c(NC4CC4)n3)cc2[nH]1` [Example 236, 5-((5-bromo-4-(cyclopropylamino)pyrimidin-2-yl)amino)-1,3-dihydro-2H-benzo[d]imidazol-2-one], less than 0.2 µM. Turning to `CNS(=O)(=O)c1ccccc1Nc1nc(Nc2cc(OC)c(OC)c(OC)c2)ncc1Br` [Example 237, 2-((5-bromo-2-((3,4,5-trimethoxyphenyl)amino)pyrimidin-4-yl)amino)-N-methylbenzenesulfonamide], the concentration for half-maximal inhibition (IC50) lay in the range of 0.2 to 2 µM. The result for `CNC(=O)c1ccccc1Oc1ccnc(Nc2cc(OC)c(OC)c(OC)c2)n1` [Example 239, N-methyl-2-((2-((3,4,5-trimethoxyphenyl)amino)pyrimidin-4-yl)oxy)benzamide] reads greater than 2 µM; that for `Oc1ccc(CCNc2ncc(C(F)(F)F)c(NC3CC3)n2)cc1` [Example 246, 4-(2-((4-(cyclopropylamino)-5-(trifluoromethyl)pyrimidin-2-yl)amino)ethyl)phenol], 0.2 to 2 µM. The result for `C[C@@H]1COCCN1c1nc(Nc2ccc3c(c2)CCC(=O)N3)ncc1C(F)(F)F` [Example 247, (R)-6-((4-(3-methylmorpholino)-5-(trifluoromethyl)pyrimidin-2-yl)amino)-3,4-dihydroquinolin-2(1H)-one] reads less than 0.2 µM; that for `FC1(F)Oc2ccc(Nc3ncc(C(F)(F)F)c(NC4CC4)n3)cc2O1` [Example 258, N4-cyclopropyl-N2-(2,2-difluorobenzo[d][1,3]dioxol-5-yl)-5-(trifluoromethyl)pyrimidine-2,4-diamine], greater than 2 µM. In the case of `CCC(=O)c1ccccc1Oc1nc(Nc2cc(OC)c(OC)c(OC)c2)ncc1Br` [Example 260, 1-(2-((5-bromo-2-((3,4,5-trimethoxyphenyl)amino)pyrimidin-4-yl)oxy)phenyl)propan-1-one] it was less than 0.2 µM; in that of `FC(F)(F)c1cnc(NCc2cccc3ccccc23)nc1NC1CC1` [Example 262, N4-cyclopropyl-N2-(naphthalen-1-ylmethyl)-5-(trifluoromethyl)pyrimidine-2,4-diamine], greater than 2 µM; in that of `FC(F)(F)c1cnc(Nc2ccc3ncccc3c2)nc1NC1CC1` [Example 264, N4-cyclopropyl-N2-(quinolin-6-yl)-5-(trifluoromethyl) pyrimidine-2,4-diamine], less than 0.2 µM. In the case of `O=C1CCc2cc(Nc3ncc(C(F)(F)F)c(Nc4cc(C5CCC5)[nH]n4)n3)ccc2N1` [Example 271, 6-((4-((5-cyclobutyl-1H-pyrazol-3-yl)amino)-5-(trifluoromethyl)pyrimidin-2-yl)amino)-3,4-dihydroquinolin-2(1H)-one], the half-maximal inhibitory concentration (IC50) is less than 0.2 µM. In the case of `FC(F)(F)c1cnc(Nc2cnc3ccccc3c2)nc1NC1CC1` [Example 275, N4-cyclopropyl-N2-(quinolin-3-yl)-5-(trifluoromethyl) pyrimidine-2,4-diamine] it was less than 0.2 µM. In the case of `O=C1CCc2cc(Nc3ncc(C(=O)O)c(NC4CC4)n3)ccc2N1` [Example 286, 4-(cyclopropylamino)-2-((2-oxo-1,2,3,4-tetrahydroquinolin-6-yl)amino)pyrimidine-5-carboxylic Acid] it was greater than 2 µM; in that of `COC(=O)Nc1ccccc1Oc1nc(Nc2cc(OC)c(OC)c(OC)c2)ncc1Br` [Example 296, Methyl (2-((5-bromo-2-((3,4,5-trimethoxyphenyl)amino)pyrimidin-4-yl)oxy)phenyl)carbamate], less than 0.2 µM; in that of `FC(F)(F)c1cnc(Nc2ccc3nc[nH]c3c2)nc1Nc1cc(C2CCC2)[nH]n1` [Example 297, N2-(1H-benzo[d]imidazol-6-yl)-N4-(5-cyclobutyl-1H-pyrazol-3-yl)-5-(trifluoromethyl)pyrimidine-2,4-diamine], less than 0.2 µM.

In the case of `COc1cc(Nc2ncc(Br)c(Oc3ccccc3C(F)(F)F)n2)cc(OC)c1OC` [Example 299, 5-bromo-4-(2-(trifluoromethyl)phenoxy)-N-(3,4,5-trimethoxyphenyl)pyrimidin-2-amine], the 50% inhibitory concentration (IC50) was less than 0.2 µM. Turning to `O=C1CCCc2cc(Nc3ncc(C(F)(F)F)c(NC4CC4)n3)ccc21` [Example 301, 6-((4-(cyclopropylamino)-5-(trifluoromethyl)pyrimidin-2-yl)amino)-3,4-dihydronaphthalen-1(2H)-one], the IC50 was less than 0.2 µM.

As for `COc1cc(Nc2ncc(Br)c(Nc3ccccc3CO)n2)cc(OC)c1OC` [Example 303, (2-((5-bromo-2-((3,4,5-trimethoxyphenyl)amino)pyrimidin-4-yl)amino)phenyl)methanol], the IC50 is less than 0.2 µM. `Nc1ccc(Nc2ncc(C(F)(F)F)c(NC3CC3)n2)cc1` [Example 304a, N2-(4-aminophenyl)-N4-cyclopropyl-5-(trifluoromethyl)pyrimidine-2,4-diamine]: the 50% inhibitory concentration (IC50) is less than 0.2 µM.

On to `CC(C)(C)OC(=O)NCCCNc1nc(Nc2ccc3c(c2)CCC(=O)N3)ncc1C(F)(F)F` [Example 310, Tert-butyl (3-((2-((2-oxo-1,2,3,4-tetrahydroquinolin-6-yl)amino)-5-(trifluoromethyl)pyrimidin-4-yl)amino)propyl)carbamate], for which the IC50 is less than 0.2 µM.

The IC50 is the concentration that gives 50% inhibition.
